Reference: publication PMC11969024, “Development of chemokine network inhibitors using combinatorial saturation mutagenesis” (Communications Biology, 2025)

System: panel of 22 biotinylated chemokines
Test: Saturation (NNK) mutagenesis phage-display selection against biotinylated chemokines, enrichment by NGS
Format: binding, human
Conditions: two-sided Dunnett's test; for log2E compared to parental HD2, CXnC chemokines: 7 CXnC chemokines
Description: 81-mer mutant oligonucleotides replacing NNK at each of the 16 peptide encoding residues were designed with the sequence arms 5’-[…], and […]-3’ at respective ends to enable amplification and cloning. Oligonucleotides (Genscript) were individually amplified and cloned into plasmid prSTOP4Nsi (described in[37]). prSTOP4Nsi was amplified using primers (Sigma): […]
Oligonucleotides were amplified using primers (Sigma): oligo_fwd: 5’-[…] and oligo_rev2: 5’-[…]. The PCR products were cloned into prSTOP4Nsi plasmid using NEB Builder HiFi Assembly (E5520, NEB) following instructions of the manufacturer. The vector pool was used to transform electrocompetent ElectroMAX™ DH5α-E™ cells (11319019, Invitrogen). Plasmid DNA was harvested by MaxiPrep (GeneJet Plasmid Maxiprep Kit (K0491, Thermo Scientific)). DNA was transformed into SS320 phage display electrocompetent cells (60512, Lucigen), following the manufacturer’s protocol. Following electroporation, cells were resuspended in 950 μL recovery media and transferred to 50 mL Falcon tubes. 100 μL 10^11 CFU/mL M13KO7 helper phage (N0315S, NEB) was added, and tubes shaken at 37 °C, 220 RPM, 1 h. 1 mL recovery culture was added to 2YT medium containing +50ug/mL carbenicillin (C9231, Sigma) and 25ug/mL kanamycin (K1377, Sigma), and grown overnight at 37 °C, 220 RPM. Phage was precipitated from culture supernatant by adding 22.5 mL of supernatant to 4.5 mL 20% PEG 8000 (89510, Sigma)/2.5 M NaCl (S9625, Sigma), incubating on ice for 30 min, and centrifuging at 12857 g, 4 °C, 10 min. The phage pellet was resuspended in 1 mL of PBT (PBS (P4417, Sigma), BSA (A7030, Sigma) 0.20%, Tween 20 (P1379, Sigma) 0.05%). Undissolved particulate matter was removed by centrifugation at 15871 g, 4 °C, 10 min. Glycerol (G5516, Sigma, 10% final (v/v) was added, and aliquots stored at −80 °C. A schematic of phage-display library construction is provided in Supplementary Fig. 12.
Phage display screening was performed as described. Experiments were performed in 96-well plates (Greiner Bio-One, 655180). Biotinylated chemokines or complement C5A (1μg, Almac or Protein Foundry) were incubated overnight at 4 °C with shaking at 250 RPM with 5μl streptavidin-coated magnetic beads (Dynabeads™ M-280 Streptavidin, Invitrogen, 11205D) in 100 μl PBS. Chemokine-bound beads were blocked for two hours in 200μl blocking buffer (PBS (phosphate-buffered saline, Sigma, P4417) + 0.2% BSA (bovine serum albumin, Sigma, A7030) with shaking at 250 RPM. Phage library (100μL, 10^10 CFU/mL) was bound to blocked beads for two hours at room temperature with shaking at 250 RPM. Beads were washed 15 times with PT buffer (PBS + 0.05% Tween 20 (Sigma, P1379)) to remove unbound phage then transferred to a fresh plate. Beads were incubated with 100μL phage-resistant Omnimax E. coli (Invitrogen, A10469) at optical density (OD600) 0.6-0.8, shaken at 37 °C for 30 min. Following this 10 µL M13K07 helper phage (NEB, N0315S, final concentration 10^10 CFU/mL) was added and shaken at 37 °C for 45 min. Cells were transferred to 1 mL 2YT medium (at pH7, MP Biomedicals™, 113012031, supplemented with 150 µg/mL carbenicillin (Sigma, C9231) and 75 µg/mL kanamycin (Sigma, K1377) in a 96-deep well block with V-bottom (Corning, CLS3960) and grown with overnight shaking at 37 °C, 200 RPM. Plates were either centrifuged at 2000g (4 °C, 30 min) or transferred to screw cap tubes and pelleted by centrifugation at 4000 g and 4 °C for 15 min. 540 µL of supernatant was transferred to a new 96-deep well plate, 60 µL of 10×PBT (10×PBS + 2% BSA + 0.5% Tween 20) added and stored at 4 °C for subsequent rounds. Phage display was carried out for three rounds. A schematic of phage-display library screening is provided in Supplementary Fig. 12.
We amplified inserts from the input library and from the selected phage population directly from phage by PCR using primers: 5’-[…] and 5’-[…] (Life Technologies). […]

EEDDYWAYAPLTCYFT [HD2T6W, HD2 point mutant]
log2E compared to parental HD2, CXnC chemokines: significant improvement
log2E compared to parental HD2, all chemokines (three selection rounds, 22 chemokines): significantly improved

EEDDWTAYAPLTCYFT [HD2Y5W, HD2 point mutant]
log2E compared to parental HD2, CXnC chemokines: significant improvement
